Data from PubChem BioAssay AID179 (DTP/NCI, 2004).
Several values for one entry are separate records, joined by “and”; a condition that tells them apart may be missing. Identical values can stand only once. Activity calls are given as the source filed them.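 Rule for the calls: active = compounds giving half or more protection of infected cells from virus-caused growth loss, again on retest; inactive = the rest.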

System: CEM cells HIV-1 protection, formazan growth assay
Test: NCI AIDS Antiviral Assay
Conditions: for IC50: measured here: growth of uninfected CEM cells
Outline: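 Category rules: moderately active means at least 50% protection on retest, and confirmed active means 100% protection reproducibly. The underlying data came from a formazan growth assay in HIV-1-infected CEM cells.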

For `CCNc1nc(NC(C)C)nc(-c2ccncc2)n1`, the EC50 was over 200 µM and the IC50 was 138 µM.
For `CC(=O)OC[C@@H](COC(=O)/C=C/c1ccc(O)cc1)OC1OC(CO)C(O)C(O)C1O` (stereo not given in full), the outcome was “inactive”.
`Cc1ccc(S(=O)(=O)OC(F)(F)C(F)(F)F)cc1` gave an EC50 of over 234 µM and an IC50 of over 234 µM.
`C/C(Cl)=N/OC(=O)Nc1ccc(S(N)(=O)=O)c(C)c1` was tested, and the EC50 was over 20 µM and the IC50 was 8.71 µM.
Work on `C=CCN1/C(=C(\C#N)c2nc3ccccc3[nH]2)Sc2c1nc[nH]c2=O` yielded an EC50 of over 10.7 µM and an IC50 of over 10.7 µM.
`c1csc(-c2cc(-c3ccsc3)c(-c3cccs3)s2)c1` was tested, and the EC50 was over 200 µM and the IC50 was 107 µM.
In the case of `COc1ccc(NC(=O)CC(=O)NN2C(=O)/C(=C/c3ccc(N(CCC#N)CCC#N)cc3C)N=C2/C=C\c2ccccc2)cc1`, the outcome is reported as “inactive”.
For `O=c1[nH]nnc2c1sc1ncccc12`, the EC50 was over 200 µM and the IC50 was over 200 µM.
With `O=C(c1ccccc1)[C@@]12COc3ccccc3[C@@H]1ON=C2c1ccccc1` the EC50 was over 10.7 µM and the IC50 was over 10.7 µM.
`COc1oc(C2C/C(=C/C(C)=C/C(C)=C/C(C)=C/c3ccc([N+](=O)[O-])cc3)CO2)c(C)c(=O)c1C` (stereo not given) gave an EC50 of over 38.9 µM and an IC50 of 10 µM.
In the case of `COc1ccc(N=Nc2c(C)c(C#N)c(=S)n(C3OC(CO)C(O)C(O)C3O)c2C)cc1` (stereo not given), the EC50 is reported as over 200 µM and the IC50 is reported as 27.5 µM.
With `CC(=O)Nc1ccc(/C=C(\NC(=O)c2ccccc2)c2nc3ccc4c(c3[nH]2)C(=O)c2ccccc2C4=O)cc1` the outcome was “inactive”.
In the case of `CC12CCC(C(Br)C1=O)C2(C)CBr` (stereo not given), the outcome is reported as “inactive”.
For `C/C=C/C=N/N(C(=O)c1cc([N+](=O)[O-])cc([N+](=O)[O-])c1)C1=NC(c2ccccc2)C(c2ccccc2)=NN1` (stereo not given), the EC50 was over 36.3 µM and the IC50 was over 36.3 µM.
`CCCCCCCCOC1OC(COC(C)=O)C(OC(C)=O)C(OC(C)=O)C1OC(C)=O` (stereo not given) was tested, and the EC50 was over 100 µM and the IC50 was > 100 µM and 95.5 µM.
For `C=C1C(OC(=O)C(OC(C)=O)C(c2ccccc2)N(C)C)C[C@H](O)[C@]2(C)C1C[C@@H]1CC(OC(C)=O)C(C)=C([C@@H](OC(C)=O)C2O)C1(C)C` (stereo not given in full), the outcome was “inactive”.
Molecule `COc1ccc(-c2cc(-c3ccco3)c(C#N)c(=S)n2C2OC(COC(C)=O)C(OC(C)=O)C(OC(C)=O)C2OC(C)=O)cc1` (stereo not given) has an EC50 of 123 µM and an IC50 of 145 µM.
For `N#CC(C#N)c1ccc(C(=O)N2CCC[C@H]2CO)cc1`, the outcome was “inactive”.
In the case of `O=C1CCCCCCCCCCC1CN1CCCCC1` (stereo not given), the outcome is reported as “inactive”.
For `CCOC(=O)C(/C=N/C(N)=S)=C(/O)c1ccccc1`, the EC50 was over 200 µM and the IC50 was over 200 µM.
`CC(C)N1CCOC12CCCC2` showed an EC50 of over 200 µM and an IC50 of 29.5 µM.
With `CC(C)(C)[Si](C)(C)OC[C@H]1O[C@@H](n2ccc(=O)[nH]c2=O)C[C@]12CCN(O)CO2` the EC50 was over 200 µM and the IC50 was 105 µM.
With `O=C(O)C1=Cc2cccc3cccc(c23)C1=O` the outcome was “inactive”.
For `CC1(C)OC(C[C@]2(C#N)C[C@H](CCl)OC(C)(C)O2)C[C@@H](C[C@]2(C#N)C[C@H](CCl)OC(C)(C)O2)O1` (stereo not given in full), the EC50 was over 200 µM and the IC50 was 67.6 µM.
With `COC(=O)C1=C(C(=O)OC)C2(C)OC1C(=O)C21CC1` (stereo not given) the outcome was “inactive”.
In the case of `Cc1ccc(S(=O)OC23CC4CC(CC(C4)C2)C3)cc1` (stereo not given), the outcome is reported as “inactive”.
Work on `c1cc2nnc1SCCSCCSCCSc1ccc(nn1)SCCSCCSCCS2` yielded an EC50 of over 200 µM and an IC50 of over 200 µM.
For `CC1(c2ccc(Cl)cc2)C2C(=O)NC(=O)C1C(=O)NC2=O` (stereo not given), the EC50 was over 813 µM and the IC50 was 490 µM.
`Cc1cc2oc(C)c(S(=O)(=O)NC(=O)Nc3ccc(Cl)cc3)c(=O)c2c(=O)o1` showed an EC50 of over 200 µM and an IC50 of 107 µM.
For `C(=C(c1ccccc1)c1ccccc1)=C(c1ccccc1)c1ccccc1`, the EC50 was over 28.8 µM and the IC50 was over 28.8 µM.
Work on `CCC1(O)CN(CCOC)[C@H]2C[C@@H]1C(=O)c1[nH]c3ccccc3c12` (stereo not given in full) yielded an EC50 of over 200 µM and an IC50 of over 200 µM.
`CCOP(=O)(OCC)/C(C#N)=C/c1cnc(-c2ccccc2)[nH]1` was tested, and the EC50 was over 200 µM and the IC50 was 102 µM.
Work on `COc1cc2c(cc1Oc1c(O)c(OC)cc3c1C(C)N(C)CC3)C(C)N(C)CC2` (stereo not given) yielded an EC50 of over 200 µM and an IC50 of over 200 µM.
Molecule `O=C(O)c1sccc1Cc1ccsc1` has an EC50 of over 200 µM and an IC50 of over 200 µM.
`CC(C)CCCC(C)[C@H]1CCC2C3C/C(=C\C#N)[C@H]4CCCC[C@]4(C)C3CC[C@@]21C` (stereo not given in full) was tested, and the EC50 was over 100 µM and the IC50 was over 100 µM.
`CSC(=Nc1ccccc1)c1c(C)[nH]n(-c2ccccc2)c1=O` showed an EC50 of over 200 µM and an IC50 of 126 µM.
Work on `CC(C)c1cccc(C(C)C)c1NC(=O)C(=O)C1CCC2=C(Sc3ccccc3N2)C1=O` (stereo not given) yielded an EC50 of over 204 µM and an IC50 of 2.24 µM.
For `O=C1c2c(O)cc(O)cc2O[C@@]12c1c(cc(O)c3c1O[C@H](c1ccc(O)cc1)[C@@H](O)C3)O[C@@H]2c1ccc(O)cc1`, the EC50 was 2.57 µM and the IC50 was 50.1 µM.
In the case of `O=C(Nc1cc(C(=O)Nc2cccc(S(=O)(=O)O)c2)cc(C(=O)Nc2cccc(S(=O)(=O)O)c2)c1)c1cccc(C(=O)Nc2cc(C(=O)Nc3cccc(S(=O)(=O)O)c3)cc(C(=O)Nc3cccc(S(=O)(=O)O)c3)c2)c1`, the EC50 is reported as 97.7 µM and the IC50 is reported as over 100 µM.
`Nc1ncnc2c1ncn2[C@H]1[C@H](CO)[C@@H](CO)C1(F)F` showed an EC50 of over 200 µM and an IC50 of 155 µM.
Work on `CC1CC(c2ccccc2)=Nc2ccccc2S1` (stereo not given) yielded an EC50 of over 14.1 µM and an IC50 of over 14.1 µM.
Molecule `COc1ccc(-c2oc3cc(OC)c(OC)c(O)c3c(=O)c2O)cc1O` has an EC50 of over 200 µM and an IC50 of 1.05 µM.
`COc1ccc2c(c1OC)C(=O)C2` showed an EC50 of over 200 µM and an IC50 of over 200 µM.
Molecule `Cc1ccc(C2(O)c3cccc4cccc(c34)C2(O)c2ccc(C)cc2)cc1` (stereo not given) has an EC50 of over 200 µM and an IC50 of 13.5 µM.
With `N#CC1=C2Oc3ccccc3N2C(c2ccc(Cl)cc2)C(C#N)=C1N` (stereo not given) the EC50 was over 200 µM and the IC50 was 36.3 µM.
